# Results as given in patent US8158165B2, “Preventative treatment and remission of allergic diseases” (CSIR, priority 2006, dated 2012).
# Tests used:
# [1] = test system: human peripheral blood mononuclear leukocytes (PBMNL); assay: Cytotoxicity, Mediator Release, Con A-Induced (AlamarBlue); type: cell-based
# Description: (§1) For the ConA-Induced mediator release/cytotoxicity test, the test compound and/or vehicle is incubated with a suspension of human peripheral blood mononuclear leukocytes (PBMNL, 1×10^5/well) in the presence of Concanavalin A (Con A, 20 μg/ml) in RPMI buffer (pH 7.4) at 37° C. overnight in 5% CO2. AlamarBlue reagent is added and the cells are incubated at 37° C. for 16 hours. Living cells take up AlamarBlue and emit fluorescence. Fluorescence intensity is measured using a SpectraFluor Plus plate reader with excitation at 530 nm and emission at 590 nm. A decrease of 50% or more (50%) in fluorescence intensity relative to the vehicle treated controls indicates significant cytotoxicity. […] Dexamethasone is used as standard reference agent.
# [2] = as above; type: cell-based, human; conditions: human, pH 7.4
# Description: as §1
# [3] = test system: NF-κB transcription factor; assay: Transcription Response, NF-κB (Jurkat lacZ reporter); type: cell-based, human
# From the text: The assay is described in Lenardo M J, Baltimaore D. Lenardo M J, Baltimaore D, NF-κB: A pleiotropic mediator of inducible and tissue specific gene control. Cell. 58: 227-229, 1989, the contents of which are incorporated herein by way of reference.
# Human T lymphocytic Jurkat cells, transfected with a response element-lacZ reporter in which transcription of the β-galactosidase gene is directed by the binding site for the NF-κB transcription factor, are used. Test compound and/or vehicle are incubated with the cells (1.5×10^6/ml) in the presence of 0.5 μM A23187 and 50 ng/ml PMA (phorbol 12-myristate 13-acetate) in RPMI-1640 pH 7.4 at 37° C. for 4 hours. Test compound-induced β-galactosidase activity is determined by the conversion of FDG (fluorescein di-β-D-galactopyranoside) to fluorescein. Fluorescence intensity is read on SpectroFluor Plus plate reader. […]
# Lipoxygenase 5-LO = assay: 5-lipoxygenase enzyme assay (5-LO); type: biochemical, human; conditions: 100 μg/ml
# Description: For the 5-LO test a crude 5-lipoxygenase enzyme preparation from rat basophilic leukemia cells (RBL-1) is used. The test compound is pre-incubated with the enzyme for 5 minutes in Tris buffer pH 7.2 at room temperature. The reaction is initiated by addition of 15 μM arachidonic acid as substrate and run for an additional 8 minutes after which the reaction is terminated by addition of 70 mM citric acid and levels of 5-HETE are determined by radioimmune assay. […] NDGA (nordihydroguaretic acid) is used as standard reference agent.
compound,measurement,setting,value
"Cc1coc2c1C[C@H]1[C@H](C)C=CC(=O)[C@]1(C)C2 (relative stereo) [compound 1, 4,4a,5,9-tetrahydro-3,5,8a-trimethylnaptho[2,3-b]furan-8-one]",cytotoxicity observed in mediator release bio-assays (in words),[1],Limited cytotoxicity
same,"ANT. Cytotoxicity, Mediator Release, Con A-Induced",[1]; 10 nM,−1%
same,"ANT. Cytotoxicity, Mediator Release, Con A-Induced",[1]; 0.1 μM,0%
same,"ANT. Cytotoxicity, Mediator Release, Con A-Induced",[1]; 1 μM,18%
same,"ANT. Cytotoxicity, Mediator Release, Con A-Induced",[1]; 10 μM,35%
same,"ANT. Cytotoxicity, Mediator Release, Con A-Induced",[1]; 100 μM,53%
same,IC50,[2],58.5 µM
same,"% RESPONSE Ant, Transcription Response, NF-κB",[3]; 0.1 μM,0%
same,"% RESPONSE Ant, Transcription Response, NF-κB",[3]; 1 μM,7%
same,"% RESPONSE Ant, Transcription Response, NF-κB",[3]; 10 μM,27%
same,"% RESPONSE Ant, Transcription Response, NF-κB","[3]; 10 μM, fifth (last) step of the series",5%
same,"% RESPONSE Ant, Transcription Response, NF-κB",[3]; 100 μM,113%
same,"% RESPONSE Ant, Transcription Response, NF-κB","[3]; 100 μM, listed as compound of formula 1",> 100%
same,IC50,"[3]; Homo sapiens, Jurkat, read-out: IC50 inhibition of NF-κB transcription factor",15.6 µg/mL
same,Inhibition (%) Lipoxygenase 5-LO,Lipoxygenase 5-LO,99%
